Test results taken from patent US10934346B2, “Modified T cell comprising a polynucleotide encoding an inducible stimulating molecule comprising MyD88, CD40 and FKBP12” (priority 2014, dated 2021).

What was measured:
Capan-1 tumor = Capan-1 tumor xenograft in NSG mice with T cell bioluminescence imaging; type: in vivo
Method: FIG. 3A) Shorn mice were engrafted with Capan-1 tumor cells and treated with PSCA.ζ CAR T cells cotransduced with control vector or iMC, or non-transduced T cells, and injected i.v. on days 7 and 14. Exogenous IL-2 was given i.p. until day 21 and then withdrawn. All mice received 5 mg/kg rimiducid i.p. twice per week (biw). Tumor size was measured by calipers (FIG. 3B) and survival assessed over a 100-day period (FIG. 3C). FIG. 3D) to measure in vivo CAR T cell persistence and expansion, NSG mice were used. Mice were injected s.c. with Capan-1 tumor cells and then treated with non-transduced (NT) or FKBP and PSCA.ζ-modified T cells or iMC and PSCA.ζ-modified T cells. Mice treated with iMC-enabled T cells received 2.5 mg/kg rimiducid once (qw), twice weekly (biw) or saline only via i.p. injection. FIG. 3E) Subcutaneous tumor size was measured by calipers over a 30 day period.
FIG. 3F) In vivo bioluminescence imaging was performed on mice treated with iMC-transduced T cells receiving saline only, or with systemic rimiducid administration. […]
In vivo studies. […] Tumors were measured by calipers and tumor size calculated. […] Photon emission was analyzed by constant region-of-interest (ROI) drawn over the tumor region and the signal measured as total counts as previously validated^10. As above, efficacy was assessed by measuring tumors using calipers. […]

IC-21 macrophages = experiment: IL-6 ELISA of adenovirus-transduced IC-21 macrophages with AP1903; type: cell-based
Description: Inducible chimeric polypeptides of the present application were expressed in various cell types along with a tumor antigen. […] Cell lines included keratinocytes, melanocytes (for example, B16-F10 melanoma), macrophages (for example, IC-21), and fibroblasts (for example, BLK-CL4). FIG. 22 provides a schematic overview of the process by which expression of the chimeric polypeptide, after contacting AP1903, can induce the expression of inflammatory cytokines and chemokines in the transduced cell. FIG. 23 provides a schematic of an assay used to measure PSMA expression and cytokine secretion in transduced cells. The cells were transduced with one of four adenovirus Ad5 vectors: Ad5-iMC-RP-FL; Ad5-iMC-P2A-P-FL; Ad5f35iMC-RP-FL; or Ad5f35iMC-P2A-FL. […] IC-21 macrophages were cultured at 100,000 cells/ml/well in 24-well plates. […] A. Cells were labeled with anti-human PSMA antibody, LNI-17, (Biolegend, San Diego, Calif.) and PSMA expression was analyzed by flow cytometry. […] B. IL-6 was evaluated from the culture supernatants by ELISA (e-Bioscience, San Diego, Calif.). […] A. Cells were labeled with anti-human PSMA antibody, LNI-17, (Biolegend, San Diego, Calif.) and PSMA expression was analyzed by flow cytometry. […] B. IL-6 was evaluated from the culture supernatants by ELISA (e-Bioscience, San Diego, Calif.). […] IL-6 was evaluated from the culture supernatants by ELISA (e-Bioscience, San Diego, Calif.).

Question: Which tumor control (Capan-1 tumor; rimiducid 2.5 mg/kg once or twice weekly, iMC and PSCA.ζ T cells) does the source give for `CC[C@H](C(=O)N1CCCC[C@H]1C(=O)O[C@H](CCc1ccc(OC)c(OC)c1)c1cccc(OCC(=O)NCCNC(=O)COc2cccc([C@@H](CCc3ccc(OC)c(OC)c3)OC(=O)[C@@H]3CCCCN3C(=O)[C@@H](CC)c3cc(OC)c(OC)c(OC)c3)c2)c1)c1cc(OC)c(OC)c(OC)c1` (relative stereo) [rimiducid, 2-Piperidinecarboxylic acid, 1-[(2S)-1-oxo-2-(3,4,5-trimethoxyphenyl)butyl]-, 1,2-ethanediylbis [imino(2-oxo-2,1-ethanediyl)oxy-3,1-phenylene[(1R)-3-(3,4-Dimethoxyphenyl)propylidene]] ester, [2S-[1(R*),2R*[S*[S*[1(R*),2R*]]]]]-(9Cl)] here?
Answer: enabled enhanced tumor control

Question: And the “T cell bioluminescence (BLI)” value (Capan-1 tumor; systemically and at the subcutaneous tumor site)?
Answer: dramatic increase in T cell BLI

Question: And the IL-6 production (IC-21 macrophages; 100 nM AP1903)?
Answer: response to AP1903 by producing IL-6

Question: What about the “activation of IL-6, dependence on AP1903” value (IC-21 macrophages; macrophages) of the same compound?
Answer: occurred in the presence or absence of AP1903
